Assay results: patent US8691811B2, “Quinazolinone linked pyrrolo[2,1-c][1,4]benzodiazepine hybrids as potential anticancer agents and process for the preparation thereof” (Council of Scientific & Industrial Research, priority 2008, dated 2014)

Key:
Assay type in all cases: cell-based, human
[1] = tested on: RXF 393; assay: NCI cytotoxicity (SRB, 48 h), RXF 393; details: RXF 393, renal
Method: (§1) The C8-linked quinazolinone-PBD hybrid (5d) has been tested against sixty human tumour cell lines derived from nine cancer types (leukemia, non-small cell lung cancer, colon cancer, CNS cancer, melanoma, ovarian cancer, renal cancer, prostate cancer and breast cancer) as per NCI protocol. For each compound, dose response curves for individual cell lines have been measured at a minimum of five concentrations at 10 fold dilutions. A protocol of 48 h continuous drug exposure has been used, and a sulforhodamine B (SRB) protein assay was used to estimate cell viability or growth. The concentration for 50% cell growth inhibition (GI50), total cell growth inhibition (TGI, 0% growth) and 50% cell death (LC50, […]) compared with the control has been calculated (Table-1). Compound 5d has been evaluated for their in vitro cytotoxicity in sixty cell lines from nine human cancer types of lung (Hop-62, NCI-H226, NCI-H522), leukemia (K-562, SR), colon (HCT-116, HCT-15, HCC-2998), CNS(SF-539), melanoma (SK-MEL-5, UACC-62, M14), ovarian (IGROV1), renal (A498), prostate (PC3) breast (BT-549, MDA-MB-435, HS578T) origin. The results are expressed as percent of cell growth determined relative to that of untreated control cells (Table 2). The representative compound 5d has shown significant cytotoxicity against some cancer cell lines.

[2] = tested on: EKVX; assay: NCI cytotoxicity (SRB, 48 h), EKVX; details: non-small cell lung
Method: as §1

[3] = tested on: Prostate cancer cell lines; assay: NCI cytotoxicity (SRB, 48 h), prostate panel; details: Prostate panel average
Method: as §1

[4] = tested on: CCRF-CEM; assay: NCI cytotoxicity (SRB, 48 h), CCRF-CEM; details: leukemia
Method: as §1

[5] = tested on: BT-549; assay: NCI cytotoxicity (SRB, 48 h), BT-549; details: BT-549, breast
Method: as §1

[6] = tested on: HCT-116; assay: NCI cytotoxicity (SRB, 48 h), HCT-116; details: HCT-116, colon
Method: as §1

[7] = tested on: SK-OV-3; assay: NCI cytotoxicity (SRB, 48 h), SK-OV-3; details: SK-OV-3, ovarian
Method: as §1

[8] = tested on: Ovarian cancer cell lines; assay: NCI cytotoxicity (SRB, 48 h), ovarian panel; details: Ovarian panel average
Method: as §1

[9] = tested on: HOP-92; assay: NCI cytotoxicity (SRB, 48 h), HOP-92; details: HOP-92, non-small cell lung
Method: as §1

[10] = tested on: UO-31; assay: NCI cytotoxicity (SRB, 48 h), UO-31; details: UO-31, renal
Method: as §1

[11] = tested on: Non-small cell lung cancer cell lines; assay: NCI cytotoxicity (SRB, 48 h), non-small cell lung panel; details: Non-small-cell lung panel average
Method: as §1

[12] = tested on: SN12C; assay: NCI cytotoxicity (SRB, 48 h), SN12C; details: renal
Method: as §1

[13] = tested on: K-562; assay: NCI cytotoxicity (SRB, 48 h), K-562; details: K-562, leukemia
Method: as §1

[14] = tested on: 786-0; assay: NCI cytotoxicity (SRB, 48 h), 786-0; details: 786-0, renal
Method: as §1

[15] = tested on: RPMI-8226; assay: NCI cytotoxicity (SRB, 48 h), RPMI-8226; details: RPMI-8226, leukemia
Method: as §1

[16] = tested on: SK-MEL-2; assay: NCI cytotoxicity (SRB, 48 h), SK-MEL-2; details: SK-MEL-2, melanoma
Method: as §1

[17] = tested on: MALME-3M; assay: NCI cytotoxicity (SRB, 48 h), MALME-3M; details: melanoma
Method: as §1

[18] = tested on: SF-539; assay: NCI cytotoxicity (SRB, 48 h), SF-539; details: SF-539, CNS
Method: as §1

[19] = tested on: HT29; assay: NCI cytotoxicity (SRB, 48 h), HT29; details: HT29, colon
Method: as §1

[20] = tested on: SK-MEL-28; assay: NCI cytotoxicity (SRB, 48 h), SK-MEL-28; details: SK-MEL-28, melanoma
Method: as §1

[21] = tested on: SNB-75; assay: NCI cytotoxicity (SRB, 48 h), SNB-75; details: SNB-75, CNS
Method: as §1

[22] = tested on: MOLT-4; assay: NCI cytotoxicity (SRB, 48 h), MOLT-4; details: MOLT-4, leukemia
Method: as §1

[23] = tested on: SNB-19; assay: NCI cytotoxicity (SRB, 48 h), SNB-19; details: SNB-19, CNS
Method: as §1

**Q.** Which GI50 [1] does the source give for `COc1cc2c(cc1OCCCCCOc1ccc(-n3c(C)nc4ccccc4c3=O)cc1)N=C[C@@H]1CCCN1C2=O` [5d, 7-methoxy-8-{5-[4-(2-methyl-4-oxo-3,4-dihydro-3-quinazolinyl)phenoxy]pentyloxy-}-(11aS)-1,2,3,11a-tetrahydro-5H-pyrrolo[2,1-c][1,4]benzodiazepine-5-one] here?
**A.** 0.21 µM

**Q.** What about the GI50 [2] of the same molecule?
**A.** 0.87 µM

**Q.** What about the “Log10 GI50” value [3] of the same molecule?
**A.** −6.55 mol/L

**Q.** What about the “Log10 LC50” value [3] of the same molecule?
**A.** −5.19

**Q.** What about the GI50 [4] of the same molecule?
**A.** 0.16 µM

**Q.** What about the GI50 [5] of the same molecule?
**A.** 0.11 µM

**Q.** What about the GI50 [6] of the same molecule?
**A.** 0.15 µM

**Q.** What about the GI50 [7] of the same molecule?
**A.** 0.43 µM

**Q.** What about the “Log10 GI50” value [8] of the same molecule?
**A.** −6.52 mol/L

**Q.** What about the “Log10 LC50” value [8] of the same molecule?
**A.** −4.79

**Q.** What about the GI50 [9] of the same molecule?
**A.** 0.35 µM

**Q.** What about the GI50 [10] of the same molecule?
**A.** 0.36 µM

**Q.** What about the “Log10 GI50” value [11] of the same molecule?
**A.** −6.59 mol/L

**Q.** What about the “Log10 LC50” value [11] of the same molecule?
**A.** −5.02

**Q.** And the GI50 [12]?
**A.** 0.24 µM

**Q.** What about the GI50 [13] of the same molecule?
**A.** 0.06 µM

**Q.** And the GI50 [14]?
**A.** 0.17 µM

**Q.** What about the GI50 [15] of the same molecule?
**A.** 0.19 µM

**Q.** And the GI50 [16]?
**A.** 0.42 µM

**Q.** And the GI50 [17]?
**A.** 0.23 µM

**Q.** What about the GI50 [18] of the same molecule?
**A.** 0.22 µM

**Q.** And the GI50 [19]?
**A.** 0.26 µM

**Q.** And the GI50 [20]?
**A.** 0.2 µM

**Q.** What about the GI50 [21] of the same molecule?
**A.** 0.38 µM

**Q.** And the GI50 [22]?
**A.** 0.19 µM

**Q.** What about the GI50 [23] of the same molecule?
**A.** 0.28 µM
